Reference: patent publication US20040121398A1 (priority 2000, published 2004)

Experiments:
VTII and Bcl-2 = test: Far Western blotting of VTII/Bcl-2 complex formation (B10 cell extract, biotinylated VTII); format: binding, human; conditions: extract of Bcl-2-expressing B10 cells, biotinylated VTII, in the presence of NWGRI
B10 cells = format: cell-based, human

Substance: NWGRI
- complex formation of VTII and Bcl-2 (VTII and Bcl-2): interrupted the complex formation of VTII and Bcl-2 in a dose dependent manner
- induction of apoptotic cell death by VTII (B10 cells): suppressed
